This is an account of results in US20190290683A1 (KEIO UNIVERSITY, priority 2016, published 2019).

The subject of one assay is hemorrhagic shock model. The following applies: for Exsanguinated/body weight (ml/100 g): exsanguinated volume per 100 g of body weight to maintain blood pressure at 30-35 mmHg. Here is the method: In this Example, the effect of hydrogen gas on a hemorrhagic shock model was evaluated according to the test protocol shown in FIG. 1.
With SD rats (male, 250-300 g), an anesthetic drug was intraperitoneally administered to perform general anesthesia. Subsequently, a PE catheter was inserted into the left femoral artery to perform direct arterial pressure monitoring, and further, an exsanguination catheter from the right femoral artery and a left ventricle catheter for cardiac function measurement from the right common artery were each inserted.
The shock phase was initiated with the initiation of exsanguination. Exsanguination was slowly performed over 15 minutes, and for a total of 60 minutes since the initiation of exsanguination, the mean arterial pressure was maintained at 30-35 mmHg.
The resuscitation phase was initiated with the initiation of resuscitation by transfusion. Transfusion resuscitation by four times the exsanguinated volume of saline was performed over 15 minutes. Test gas inhalation (hydrogen group (21% oxygen+1.3% hydrogen) and control group (21% oxygen)) were performed for a total of 3 hours from the initiation of exsanguination to 2 hours after the initiation of resuscitation. In doing so, cardiac function (LVEDP, ±dP/dt) during the same period was also recorded.
The initiation of the observation phase was 2 hours after the initiation of the resuscitation phase, and observation was performed for 4 hours thereafter (6 hours from the initiation of the resuscitation phase). During this period, blood pressure (systolic, diastolic, mean), heart rate, and the like were measured with artificial respiration in room air.
Lactic acid value and blood gas at the initiation point of shock phase (baseline), the initiation point of resuscitation phase (0 minute), the initiation point of observation phase (120 minutes), and the end-of-test timepoint (360 minutes) were each measured and evaluated.

In assay [1] the test system is rat hemorrhagic shock model. The following applies: 6 hours after initiation of resuscitation; 1.3% hydrogen+26% oxygen+72.7% nitrogen inhaled 0 to 120 minutes (resuscitation phase only); control 30%.
Procedure: In this test, improvement of the survival rate by hydrogen inhalation at the initiation point of resuscitation after shock in rat hemorrhagic shock model was evaluated.
The procedure in SD rats (250-300 g) to exsanguinate so that mean arterial pressure of 30-35 mmHg was maintained for 60 minutes, and then resuscitate with four times the exsanguinated volume of saline over 15 minutes to evaluate the survival rate at 6 hours after initiation of resuscitation was according to [Example 1].
In this test, test gas was given by inhalation as follows.
Where [2] appears, read: change over time after initiation of resuscitation, vs control group.
Setting [3] is: change over time after initiation of resuscitation, vs control group, throughout the observation period.
Where [4] appears, read: electrolyte at 120 minutes, vs control group.

Where two headings read alike, the source gives them in different places.

Regarding `[HH]` [hydrogen gas], the heart rate result in the assay with hemorrhagic shock model (after initiation of resuscitation, vs control group) was “no great difference”. Besides, the pH result in the assay with hemorrhagic shock model (blood gas at 120 minutes, vs control group, normal value about 7.4) is given as “statistically significantly higher”. In addition, the HCO3 result in the assay on hemorrhagic shock model (blood gas at 120 minutes, vs control group, normal value about 24) is given as “statistically significantly higher”. Moreover, the “BE (base excess)” value in the assay with hemorrhagic shock model (blood gas at 120 minutes, vs control group, normal value about -2) is reported as “statistically significantly improved”. For the same compound, in the assay with hemorrhagic shock model (setting [2]), the “left ventricular end-diastolic pressure (LVEDP)” value is “no statistically significantly difference”, the “negative dP/dt” value is reported as “no statistically significantly difference” and the “positive dP/dt” value is “no statistically significantly difference”. For the same compound, in the assay on hemorrhagic shock model (setting [3]), the diastolic blood pressure entry is recorded as “higher value”, the mean blood pressure entry is “higher value” and the systolic blood pressure result is recorded as “higher value”. For the same compound, in the assay with hemorrhagic shock model (setting [4]), the K result is “statistically significantly lower” and the Na entry is given as “no statistically significant difference”. Further, the “survival (individuals surviving)” value in the assay on hemorrhagic shock model (end-of-test timepoint at 6 hours after initiation of resuscitation, control 3/10) is given as 8/10. For the same compound, the “Exsanguinated/body weight (ml/100 g)” value in the assay with hemorrhagic shock model (21% oxygen+1.3% hydrogen, N = 15) was 2.60±0.40 ml/100 g. Besides, the “Exsanguinated/body weight (ml/100 g)” value in the assay with hemorrhagic shock model (21% oxygen+1.3% hydrogen, N = 15, listed as H2) was 2.60 ± 0.40 ml/100 g. The “Exsanguinated” value in the assay with hemorrhagic shock model (exsanguinated volume to maintain mean arterial pressure at 30-35 mmHg, 21% oxygen+1.3% hydrogen, N = 15) was 7.03 ± 1.15 mL. In the assay on hemorrhagic shock model (extent of anemia at 120 minutes, vs control group), the “hemoglobin (Hb)” value is given as “no statistically significant difference”. Also, the lactic acid value entry in the assay on hemorrhagic shock model (initiation point of observation phase (120 minutes), vs control group, normal value 1.0 or less) is “statistically significantly lower”. The “PaCO2 (Partial pressure of carbon dioxide)” value in the assay on hemorrhagic shock model (oxygenation indicator at 120 minutes, vs control group, normal around 40 mmHg) is recorded as “no statistical difference”. In addition, the “PaO2 (Partial pressure of oxygen)” value in the assay with hemorrhagic shock model (oxygenation indicator at 120 minutes, vs control group, normal around 100 mmHg) was “higher values for the control group”. Besides, the survival rate in assay [1] was found to be 50%.
